Assay results from patent US20160229835A1, “NOVEL PYRIDYLOXYACETYL TETRAHYDROISOQUINOLINE COMPOUNDS USEFUL AS NAMPT INHIBITORS” (ELI LILLY AND COMPANY, priority 2013, published 2016).

Columns and labels:
A2780 tumor model = test: Efficacy in Xenograft Tumor Models, A2780; assay type: in vivo; settings: nude mice, 4-day-on and 3-day-off schedule for 17 days
Method: The purpose of this assay is to measure reduction in tumor volume in response to test compound administration. A2780 and NCI-H1155 (NSCLC) cells are grown as described above for IVTI studies. Cells are harvested and injected subcutaneously onto the rear flank of nude mice. When tumors are established (7-21 days after implant), animals are randomized and grouped into control and test groups (7 animals/group). The test compound is formulated in 20% of CAPTISOL® and 25 mM of phosphate buffer, pH 2. Test compound and vehicle (20% of CAPTISOL® and 25 mM of phosphate buffer, pH 2 without compound) are administered by oral gavage. Tumor response is determined by tumor volume measurement (caliper) performed twice a week during the course of treatment and reported as percent of tumor volume of each treatment group divided by tumor volume of the vehicle control group. […] For example, Example 1 in H1155 tumor model, when dosed at 10 mg/kg (twice a day (BID) on a 4-day-on and 3-day-off schedule for 17 days, a T/C of 5.5 (P value<0.001 based on T-test) is achieved; when dosed at 20 mg/kg on the same schedule, a T/C of −81.1 (P value<0.001 based on T-test) is achieved. Example 2 in H1155 tumor model, when dosed at 8 mg/kg (twice a day (BID) on a 4-day-on and 3-day-off schedule for 17 days, a T/C of 5.2 (P value<0.001 based on T-test) is achieved; when dosed at 16 mg/kg on the same schedule, a T/C of −82.7 (P value<0.001 based on T-test) is achieved. Example 1 in A2780 tumor model, when dosed at 10 mg/kg (twice a day (BID) on a 4-day-on and 3-day-off schedule for 17 days, a T/C of 41.7 (P value<0.007 based on T-test) is achieved; when dosed at 20 mg/kg on the same schedule, a T/C of 2.4 (P value<0.001 based on T-test) is achieved.

A2780 cells = test: A2780 Proliferation Assay ±NAM (Nicotinamide); assay type: cell-based; settings: Homo sapiens, A2780, 72 h, 10 mM nicotinamide added to the growth medium, read-out: IC50 (proliferation of A2780 cells with 10 mM nicotinamide)
Method: The purpose of this assay is to measure the ability of a compound to inhibit proliferation of A2780 cells (the NCI-DCTD Tumor repository) dependent on the NAMPT-mediated NAD^+ formation in the presence or absence of higher concentrations of NAM (10 mM) in vitro. The A2780 cell proliferation assay uses assay-ready frozen cells. To prepare assay-ready frozen A2780 cells, A2780 cells, an ovarian cancer cell line, are cultured in growth media containing RPMI 1640 (Gibco 30-2001) supplemented with 10% FBS, in T-150 flasks for 3-4 days. Cells are then treated with 4 mL of 0.25% (v/v) trypsin for 1 minute (Hyclone SH30042). Trypsin-treated cells are then diluted with 10 mL of growth media, and the cell slurry is gently mixed and then decanted to a centrifuge tube. Cells are counted and then pelleted by centrifugation at 1400 rpm for 5 minutes. After centrifugation the supernatant is removed and the cell pellets are re-suspended in GIBCO® RECOVERY™ Cell Culture Freezing Medium (Invitrogen 12648-010) at 2-5×10^6 cells/mL and then aliquoted at 1 mL volumes into cryovials. Cryovials are stored initially at −80° C. for 16 hours, and then transferred to liquid nitrogen for long term storage.
One day before the planned initiation of compound treatment portion of the assay, one vial of assay ready frozen cells is thawed, and the cells are washed with 50 mL of growth medium. Cells are counted and then diluted to 2.8×10^4 cells/mL and then plated at a rate of 2500 cells/well (90 μL per well) to BD Poly-D-Lysine, 96 well black plates (BD Biocoat 35-4640). Plates are then covered and incubated overnight under 5% CO2 at 37° C. The next day in a separate plate (V bottom Nunc 249946), a ten-point compound dilution series for each compound is prepared in growth media containing 2% DMSO (v/v, 0.2% final) with or without 100 mM NAM (10 mM final). Then 10 μL of compounds after a ten-point series dilution from either 2 or 0.1 μM (depending potency of each compound) to 50 pM or 5 pM (final) are added to the wells of the cell plates. Cell plates are covered and incubated for 72 hours under 5% CO2 at 37° C.
On the day of the viability assessment, one vial of GF-AFC substrate (CELL TITER-FLUOR™ Cell Viability Assay Kit, Promega G6081) is vortexed and the substrate is transferred to one vial of thawed CELL TITER-FLUOR™ Assay Buffer. The resulting CELL TITER-FLUOR™ reagent is then vortexed well to thoroughly dissolve the substrate. The CELL TITER-FLUOR™ reagent is then diluted (1:2) in growth medium and 50 μL of diluted CELL TITER-FLUOR™ reagent is added to each well of the cell plate. The cell plate is covered and incubated under 5% CO2 at 37° C. for 1-3 hours. Finally the cell plates are removed from the incubator and the well fluorescence is measured on an Envision® Multilabel Reader (Perkin Elmer, λeX 355/λem 495). Fluorescence from compound treated wells is compared to the no cell and no compound treatment control wells to calculate percent inhibition. The percent inhibition and ten-point compound concentration data is fit to a four-parameter logistic equation using ACTIVITYBASE 4.0 Equation 205. Each compound is tested 2-4 times in this assay.

SMILES: CC(C)(O)CS(=O)(=O)Nc1ccc2c(c1)CCN(C(=O)COc1cccnc1)C2 [Example 1, 2-Hydroxy-2-methyl-N-[2-[2-(3-pyridyloxy)acetyl]-3,4-dihydro-1H-isoquinolin-6-yl]propane-1-sulfonamide]
- T/C (tumor volume of treatment group divided by vehicle control group) (A2780 tumor model; 10 mg/kg BID oral): 41.7%
- T/C (tumor volume of treatment group divided by vehicle control group) (A2780 tumor model; 20 mg/kg BID oral): 2.4%
- IC50 (A2780 cells): > 100 nM

SMILES: COCCS(=O)(=O)Nc1ccc2c(c1)CCN(C(=O)COc1cccnc1)C2 [Example 2, 2-Methoxy-N-[2-[2-(3-pyridyloxy)acetyl]-3,4-dihydro-1H-isoquinolin-6-yl]ethanesulfonamide]
- T/C (tumor volume of treatment group divided by vehicle control group) (A2780 tumor model; 8 mg/kg BID oral): 40.5%
- T/C (tumor volume of treatment group divided by vehicle control group) (A2780 tumor model; 16 mg/kg BID oral): 1.5%
- IC50 (A2780 cells): > 100 nM
